Data from PubChem BioAssay (NCI).
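Following 48 hours of exposure in 96-well plates, responses at five concentrations were used to interpolate endpoints linearly. TGI: total growth inhibition.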

Columns and labels:
Experiment in all cases: growth of human tumour cells (NCI), 48 h
[1] = test system: 786-0 renal
[2] = test system: A549 NSCLC
[3] = test system: ACHN renal
[4] = test system: BT-549 breast
[5] = test system: CAKI-1 renal
[6] = test system: COLO 205 colon
[7] = test system: DU-145 prostate
[8] = test system: EKVX NSCLC
[9] = test system: HCC-2998 colon
[10] = test system: HCT-116 colon
[11] = test system: HCT-15 colon
[12] = test system: HOP-62 NSCLC
[13] = test system: HOP-92 NSCLC
[14] = test system: HS 578T breast
[15] = test system: HT29 colon
[16] = test system: IGROV1 ovarian
[17] = test system: KM12 colon
[18] = test system: LOX IMVI melanoma
[19] = test system: M14 melanoma
[20] = test system: MALME-3M melanoma
[21] = test system: MCF7 breast
[22] = test system: MDA-MB-231 breast
[23] = test system: MDA-MB-435
[24] = test system: MDA-N
[25] = test system: NCI-H226 lung
[26] = test system: NCI-H23 lung
[27] = test system: NCI-H460 lung
[28] = test system: NCI-H522 lung
[29] = test system: NCI/ADR-RES ovarian
[30] = test system: OVCAR-3 ovarian
[31] = test system: OVCAR-4 ovarian
[32] = test system: OVCAR-8 ovarian
[33] = test system: PC-3 prostate
[34] = test system: RPMI-8226 leukemia
[35] = test system: RXF 393 renal
[36] = test system: SF-268 CNS
[37] = test system: SF-295 CNS
[38] = test system: SF-539 CNS
[39] = test system: SK-MEL-2 melanoma
[40] = test system: SK-MEL-28 melanoma
[41] = test system: SK-MEL-5 melanoma
[42] = test system: SK-OV-3 ovarian
[43] = test system: SN12C renal
[44] = test system: SNB-19 CNS
[45] = test system: SNB-75 CNS
[46] = test system: SR leukemia
[47] = test system: SW-620 colon
[48] = test system: T-47D breast
[49] = test system: TK-10 renal
[50] = test system: U251 CNS
[51] = test system: UACC-257 melanoma
[52] = test system: UACC-62 melanoma
[53] = test system: UO-31 renal
[54] = test system: CCRF-CEM leukemia
[55] = test system: HL-60(TB) leukemia
[56] = test system: K-562 leukemia
[57] = test system: MOLT-4 leukemia
[58] = test system: OVCAR-5 ovarian
[59] = test system: A498 renal

Measured: TGI

Cc1ccc(C(=O)C#Cc2cn(C3CC(O)C(CO)O3)c(=O)[nH]c2=O)cc1 (stereo unspecified)
65.1 µM: [13]
45 µM: [48]
23.9 µM: [28]
29.1 µM: [20]
89.2 µM: [47]
60 µM: [30]
not listed: [54] | [55] | [56] | [57] | [58] | [59]
> 100 µM: all other assays above

COc1ccc(NCC(=O)Nn2c(C)nc3ccc(S(=O)(=O)Nc4ccc(OC)cc4)cc3c2=O)cc1
not listed: [35] | [41] | [48] | [59]
> 100 µM: all other assays above

O=C(NCCNCCO)N/N=C/c1ccc([N+](=O)[O-])cc1
98.5 µM: [45]
not listed: [8] | [13] | [18] | [31] | [34] | [35]
> 100 µM: all other assays above

COc1ccc(C2NC3=C(CCCC3)C3(C#N)C(=O)N=C(N)C23C#N)cc1 (stereo unspecified)
91.9 µM: [54]
not listed: [30] | [38] | [45] | [46]
> 100 µM: all other assays above
